Assay results: ChEMBL document CHEMBL1139988, “Discovery of structurally diverse HIV-1 integrase inhibitors based on a chalcone pharmacophore” (Bioorg Med Chem, 2007)

Tests used:
[1] = biological target: T1, Human immunodeficiency virus type 1 integrase (Human immunodeficiency virus 1, UniProt Q7ZJM1); assay: Inhibition of HIV1 integrase strand transfer activity
[2] = biological target: T1, Human immunodeficiency virus type 1 integrase; assay: Inhibition of HIV1 integrase 3'-end processing activity

T1 sequence (Q7ZJM1 whole entry): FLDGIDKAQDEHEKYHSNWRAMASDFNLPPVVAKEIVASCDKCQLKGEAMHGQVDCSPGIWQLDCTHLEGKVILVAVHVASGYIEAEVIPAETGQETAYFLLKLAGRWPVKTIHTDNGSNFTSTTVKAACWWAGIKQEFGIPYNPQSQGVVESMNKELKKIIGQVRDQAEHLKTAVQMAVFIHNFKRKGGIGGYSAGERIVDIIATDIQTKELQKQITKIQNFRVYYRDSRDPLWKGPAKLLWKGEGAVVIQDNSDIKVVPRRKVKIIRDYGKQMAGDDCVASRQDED

| SMILES | IC50 [1] [µM] | IC50 [2] [µM] |
| --- | --- | --- |
| CCCn1c(=O)c(C(=O)NNC(=O)c2ccccc2)c(O)c2ccccc21 | 66 | 100 |
| O=C(/C=C/c1ccc2c(c1)OCO2)c1ccccc1O | > 100 | > 100 |
| Cc1cc(O)nc(SCC(=O)c2ccc(O)c(O)c2)n1 | 130 | 310 |
| O=C(NC1CCCCC1)C(c1ccco1)N(C(=O)Cn1nnc2ccccc21)c1ccc(S(=O)(=O)NCC2CCCO2)cc1 (stereo not given) | > 100 | > 100 |
| O=C(Oc1ccc(/C=N/Nc2nnc3c(n2)[nH]c2ccccc23)cc1)c1ccc(Br)cc1 | 800 | 857 |
| O=C(/C=C/c1ccccc1OC(=O)c1cc2ccccc2oc1=O)c1ccccc1 | 92 | > 100 |
| COc1ccc(OC)c(C(=O)/C=C/c2ccc3c(c2)OCO3)c1 | > 100 | > 100 |
| O=C(N/N=C/c1ccc(O)c(O)c1)c1ccccc1O | 26 | 70 |
| COc1cccc(/C=C/C(=O)c2ccccc2)c1O | 2 | 2 |
| COc1cc(C(=O)/C=C/c2ccc3c(c2)OCO3)ccc1O | > 100 | > 100 |
| CCCn1c(=O)c(C(=O)NNC(=O)COc2ccccc2)c(O)c2ccccc21 | > 100 | > 100 |
| O=C(O)COc1ccccc1/C=N/Nc1nncc(-c2ccccc2)n1 | 224 | 212 |
| O=C(/C=C/c1cccc(NC(=O)c2cccs2)c1)c1ccccc1 | 89 | > 100 |
| O=C(CSc1nc(SCC(=O)NCc2ccco2)nc(SCC(=O)NCc2ccco2)n1)NCc1ccco1 | 12 | 28 |
| O=C(COc1ccc2ccccc2c1)NNC(=O)c1ccccc1O | 18 | 29 |
| Oc1ccc(Br)cc1/C=N/Nc1nc2nonc2nc1Nc1ccc(F)cc1 | 11 | 16 |
| NC(=O)NN=C1c2cc(S(=O)(=O)NCc3ccco3)ccc2-c2ccc(S(=O)(=O)NCc3ccco3)cc21 | 20 | 92 |
| Nc1cc(O)nc(SCC(=O)c2ccc(O)c(O)c2)n1 | 89 | 278 |
| COc1ccc(Nc2nc(NCc3ccco3)nc(N/N=C/c3ccc(Br)cc3)n2)cc1 | 13 | 18 |
| COc1ccc(C(=O)Nc2ccccc2C(=O)NC(C(=O)NNC(=O)c2ccccc2O)C(C)C)cc1 (stereo not given) | 16 | 19 |
| O=C(CSc1nc(O)c2ccccc2n1)c1ccc(O)c(O)c1 | 77 | 87 |
| CC(=O)Nc1ccc2c(c1)OCCOCCOc1cc(NC(C)=O)ccc1OCCOCCO2 | 680 | 679 |
| O=C(CSc1nnc(-c2ccncc2)[nH]1)c1ccc(O)cc1O | 25 | 91 |
| O=C(COc1ccc2ccccc2c1)NNC(=O)c1cc2ccccc2cc1O | 12 | 18 |
| Cc1cc(C)cc(OCC(=O)NNC(=O)c2cc3ccccc3oc2=O)c1 | 72 | 74 |
| COc1ccc(/C=C/C(=O)c2ccc(O)cc2O)cc1 | 39 | > 100 |
| O=C(N/N=C/c1c[nH]c2ccccc12)c1ccc(O)c(O)c1 | 460 | > 1000 |

Results, then the molecule that gave them:

| IC50 [1] [µM] | IC50 [2] [µM] | SMILES |
| --- | --- | --- |
| 37 | 81 | CNc1nc(N/N=C/c2ccc(-c3ccc([N+](=O)[O-])cc3OC)o2)nc(Nc2ccccc2)n1 |
| 1 | 3.3 | O=C(NNC(=O)c1c(O)c2ccccc2[nH]c1=O)c1cccc([N+](=O)[O-])c1 |
| 30 | 52 | O=C(NNC(=O)c1c(O)c2ccccc2[nH]c1=O)c1ccccc1F |
| 100 | > 100 | CCc1cccc2c(SCC(=O)NNC(=O)c3ccccc3[N+](=O)[O-])nc(-c3ccc(F)cc3)nc12 |
| 17 | 37 | CCn1c(=O)c(C(=O)NNC(=O)c2cccc([N+](=O)[O-])c2)c(O)c2ccccc21 |
| 28 | 100 | O=C(NNC(=O)c1c(O)c2ccccc2[nH]c1=O)c1ccccc1 |
| 49 | 78 | O=c1nc2n(-c3ccc(Cl)cc3)c3ccc([N+](=O)[O-])cc3cc-2c(=O)[nH]1 |
| 130 | 150 | O=C(N/N=C/c1cccc([N+](=O)[O-])c1)c1cccc(C(=O)N/N=C/c2cccc([N+](=O)[O-])c2)n1 |
| 18 | 49 | COc1ccc(C(=O)NNC(=O)c2cc3ccccc3cc2O)cc1 |
| 36 | > 100 | O=C1Nc2ccccc2/C1=N\NC(=O)c1ccc(O)cc1O |
| 84 | 84 | Cc1ccc(NC(=O)CN2C(=O)/C(=N\NC(=O)c3ccc4ccccc4n3)c3ccccc32)cc1 |
| > 100 | > 100 | Cc1ccc(O)c(/C=N/Nc2nc3c(c(=O)[nH]c(=O)n3C)n2Cc2ccccc2)c1 |
| 220 | 195 | Oc1ccc(Cl)cc1/C=C/c1ccc2cccc(O)c2n1 |
